How the values were obtained:
Experiment in all cases: relative viability (nuclei count vs DMSO), 5 days (fraction); higher = more cells survive
[1] = compound: OCc1c[nH]c2ccccc12 [Indole-3-carbinol] + CC(=O)c1c(C)c2cnc(Nc3ccc(N4CCNCC4)cn3)nc2n(C2CCCC2)c1=O [Palbociclib] (partner 0.5 µM)
Summary of the method: (§1)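 Relative viability was taken as the ratio of nuclei in treated wells to nuclei in vehicle wells. Lung cancer cell lines in 1536-well plates received compounds by pin tool one day after seeding, either one drug alone or a fixed anchor-drug dose plus five library-drug doses (not always all listed) in √10 steps. Nuclei were counted on 4× images after 5 days of treatment, and values are medians of duplicate plates.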

[2] = compound: OCc1c[nH]c2ccccc12 [Indole-3-carbinol] + COc1cccc2cc(-c3nc([C@H]4CC[C@H](C(=O)O)CC4)n4ncnc(N)c34)[nH]c12 [OSI-027] (partner 0.5 µM)
Summary of the method: as §1

[3] = compound: OCc1c[nH]c2ccccc12 [Indole-3-carbinol] + Nc1nc2[nH]cc(CCc3ccc(C(=O)N[C@@H](CCC(=O)O)C(=O)O)cc3)c2c(=O)[nH]1 [Pemetrexed] (partner 0.2 µM)
Summary of the method: as §1

[4] = compound: OCc1c[nH]c2ccccc12 [Indole-3-carbinol] + CC(C)C[C@H](NC(=O)[C@H](Cc1ccccc1)NC(=O)c1cnccn1)B(O)O [Bortezomib] (partner 0.002 µM)
Summary of the method: as §1

[5] = compound: OCc1c[nH]c2ccccc12 [Indole-3-carbinol] + Cc1cc(Nc2cc(N3CCN(C)CC3)nc(Sc3ccc(NC(=O)C4CC4)cc3)n2)n[nH]1 [Tozasertib] (partner 0.1 µM)
Summary of the method: as §1

Cell Line | relative viability ([1]; first compound 0.253 µM) | relative viability ([1]; first compound 0.8 µM) | relative viability ([1]; first compound 2.53 µM) | relative viability ([1]; first compound 8 µM) | relative viability ([2]; first compound 0.253 µM) | relative viability ([2]; first compound 0.8 µM) | relative viability ([2]; first compound 2.53 µM) | relative viability ([2]; first compound 8 µM) | relative viability ([3]; first compound 0.253 µM) | relative viability ([3]; first compound 0.8 µM) | relative viability ([3]; first compound 2.53 µM) | relative viability ([3]; first compound 8 µM) | relative viability ([4]; first compound 0.253 µM) | relative viability ([4]; first compound 0.8 µM) | relative viability ([4]; first compound 2.53 µM) | relative viability ([4]; first compound 8 µM) | relative viability ([5]; first compound 0.253 µM) | relative viability ([5]; first compound 0.8 µM) | relative viability ([5]; first compound 2.53 µM) | relative viability ([5]; first compound 8 µM)
H3255 | 0.302 | 0.32 | 0.347 | 0.307 | 0.518 | 0.625 | 0.543 | 0.545 | 0.547 | 0.54 | 0.637 | 0.625 | 0.899 | 0.852 | 0.748 | 0.732 | 0.691 | 0.599 | 0.635 | 0.58
NCI-H441 | 0.202 | 0.267 | 0.249 | 0.185 | 0.555 | 0.73 | 0.604 | 0.622 | 0.235 | 0.283 | 0.254 | 0.245 | 0.367 | 0.938 | 0.381 | 0.375 | 0.551 | 0.782 | 0.702 | 0.595
NCI-H2228 | 0.75 | 0.771 | 0.645 | 0.78 | 0.477 | 0.724 | 0.597 | 0.651 | 0.368 | 0.335 | 0.334 | 0.344 | 1.17 | 0.876 | 0.914 | 0.911 | 0.208 | 0.303 | 0.254 | 0.265
NCI-H1975 | 0.699 | 0.704 | 0.554 | 0.644 | 0.589 | 0.808 | 0.696 | 0.743 | 0.288 | 0.294 | 0.293 | 0.311 | 0.409 | 0.328 | 0.436 | 0.365 | 0.651 | 1.03 | 0.797 | 0.88
NCI-H647 | 0.392 | 0.318 | 0.292 | 0.433 | 0.595 |  | 0.826 | 0.497 | 0.18 | 0.202 | 0.159 | 0.181 | 1.15 | 0.718 | 1.04 | 0.883 | 0.147 |  | 0.368 | 0.398
A-427 | 0.52 | 0.568 | 0.547 | 0.491 | 0.372 | 0.444 | 0.566 | 0.537 | 0.997 | 1.03 | 0.926 | 0.946 | 0.937 | 0.992 | 1.03 | 0.886 | 0.193 | 0.226 | 0.226 | 0.224
LXF-289 | 0.58 | 0.611 | 0.609 | 0.56 | 0.838 | 0.855 | 0.783 | 0.754 | 0.944 | 1.02 | 0.934 | 0.851 | 1.03 | 1.1 | 0.944 | 0.893 | 0.228 | 0.21 | 0.289 | 0.199
NCI-H1437 | 0.296 | 0.346 | 0.296 | 0.305 | 0.917 | 0.849 | 0.895 | 0.852 | 0.311 | 0.337 | 0.312 | 0.318 | 0.503 | 0.532 | 0.498 | 0.466 | 0.412 | 0.439 | 0.421 | 0.424
RERF-LC-KJ | 1.14 | 0.968 | 0.941 | 1.15 | 0.556 | 0.545 | 0.585 | 0.601 | 0.47 | 0.461 | 0.482 | 0.466 | 1.19 | 1.08 | 1.13 | 1.04 | 0.441 | 0.518 | 0.546 | 0.509
HCC-44 | 0.954 | 1.03 | 0.902 | 0.882 | 0.488 | 0.412 | 0.484 | 0.525 | 0.679 | 0.659 | 0.694 | 0.541 | 0.911 | 1.03 | 0.888 | 0.869 | 0.97 | 0.575 | 1.11 | 0.922
EPLC-272H | 0.325 | 0.376 | 0.318 | 0.334 | 0.252 | 0.299 | 0.333 | 0.218 | 0.34 | 0.349 | 0.36 | 0.349 | 1.27 | 0.925 | 0.985 | 0.837 | 0.33 | 0.267 | 0.369 | 0.396
NCI-H322M | 0.456 | 0.481 | 0.506 | 0.476 | 0.521 | 0.504 | 0.521 | 0.527 | 0.562 | 0.685 | 0.546 | 0.636 | 1.18 | 1.25 | 1.3 | 1.07 | 0.476 | 0.465 | 0.458 | 0.472

Source: the supplement of paper PMC10307832
